Test results: patent publication US11965006B2, “Antimicrobial and anti-cancer therapy” (UNIVERSITY OF PITTSBURGH—OF THE COMMONWEALTH SYSTEM OF …, priority 2016, dated 2024)
Entries after “also recorded” stand apart in the source; their conditions may differ. Like-named read-outs stand apart in the source and are kept apart here. Square brackets hold non-standard residues; d marks the D form. Ends that are not written are not given here. Peptide text beside a SMILES is read from it.

Legend:
Hep2 epithelial cells = assay: Hep2 cytopathology in RSV plaque assay; type: cell-based; settings: 32 μM
Description: Using a standard plaque assay, RSV replication was quantified in permissive Hep2 epithelial cells in the presence or absence of various AMPs. RSV plaque assays were used to determine the minimum dose required to induce Hep2 cytopathology and maximum anti-viral effects. Experimental controls included Hep2 cells+/−RSV and Hep-2 cells with AMP only.
Hep2 control cells without the AMP were also plated. Both plates were infected with the same dilution of A2 RSV virus. There is extensive sloughing of cells treated with the peptide (top plate) as compared to cells which were not (bottom plate), FIG. 18.

[1] = In vivo pulmonary toxicity; design: species or system mouse
Description: Pulmonary toxicity was tested in mouse lung.

[2] = test system: P. aeruginosa lipopolysaccharide (LPS)-induced secretion of tumor necrosis factor (TNF) in Raw (264.7) Cells; assay: Neutralization of LPS-induced TNF secretion; type: cell-based; settings: 1 μg/ml LPS
Description: Anti-inflammatory activity is based on the determination of cytokine stimulation of major inflammatory (e.g. TNF) or anti-inflammatory (e.g., IL-10) cytokines. For in vitro studies, TNF is measured using culture medium from LPS-stimulated macrophage cultures in the presence or absence of peptide treatment. For in vivo studies, cytokine levels in bronchoalveolar lavage (BAL) fluid were quantified using the mouse cytokine multiplex panel assay (Milliplex; Millipore, Billerica, Mass.). The expressions of cytokines were analyzed using the Luminex assay system, based on manufacturer's instructions and our previous publication. Standard recombinant protein solution was used to generate a standard curve for each analyzed protein. Absolute cytokine concentrations were calculated from the standard curve for each cytokine.
A high dosage (1 μg/ml) of LPS was used to stimulate the TNF secretion in raw cells.

[3] = test system: Pseudomonas aeruginosa MDR clinical isolates; type: cell-based
Description: (§1) The bactericidal activities were examined using standard bacterial culture media (MHB) without the inclusion of human blood.
(§2) Tables 3 and 4 provide the MIC data for the tested AMPs against a variety of infectious species. The following strains were tested: Enterococcus faecium MDR clinical isolates Ef 25153 and Ef 26125; methicillin-resistant Staphylococcus aureus (MRSA) clinical isolates USA300 and 150-10; Klebsiella pneumonia MDR clinical isolates C3, C5, A5, D7 and E6; and Pseudomonas aeruginosa MDR clinical isolates PA 82-8 and PA 129-5. […] Table 5 provides the data for the D-amino acid substituted AMPs and their bactericidal activities against various Klebsiella pneumonia multi-drug resistant (MDR) clinical isolates. All odd number Kp bacteria (isolated prior to colistin treatment; colistin sensitive) are paired with the corresponding even number Kp bacteria (isolated after colistin treatment; colistin resistant) from the same patient. O.D. readings represent the bacterial growth with a background reading of about 0.049+/−0.003.

[4] = test system: methicillin-resistant Staphylococcus aureus (MRSA) clinical isolates; type: cell-based
Description: as §1, §2

[5] = test system: Enterococcus faecium MDR clinical isolates; type: cell-based
Description: as §1, §2

[6] = test system: Klebsiella pneumonia MDR clinical isolates; type: cell-based
Description: as §1, §2

[7] = In vivo toxicity / maximum tolerated dose; design: species or system Mice (strain: Swiss Webster)
Description: The modified AMPs show a lower toxicity and higher maximum tolerated dosage (MTD) than WLBU2 (SEQ ID No. 26). The MTD for WLBU2 (SEQ ID No. 26) is 15 mg/kg, for Colistin is 10 mg/kg, and SEQ ID No. 15 is 30 mg/kg (FIG. 14A).
Mice (strain: Swiss Webster) were injected with SEQ ID No. 15 peptides intravenously (i.v.) or intraperitoneally (i.p.) at the concentrations indicated. […] Thus, the estimated maximum tolerated dose (MTD) is around 40-50 mpk (i.v.). On a similar setting of testing other AMPS, the MTD for WLBU2 is 15 mpk (i.v.) and 10 mpk (i.v.) for colistin.

Pseudomonas aeruginosa = type: cell-based; settings: for MIC: 18 h
Description: as §1
FIG. 5 illustrates the bactericidal activity of the 30 amino acid AMP series against Pseudomonas aeruginosa (by kinetic assay) over time (hours). […] OD reading, at 570 nm, represents bacterial growth; background reading (˜0.05) was subtracted from sample readings. Bolded concentration indicates the determined MIC. For example, MIC for SEQ ID No. 4 was 4 μM, MIC for SEQ ID No. 8 was 2 μM, MIC for SEQ ID No. 7 was 2 μM, MIC for SEQ ID No. 5 was 2 μM, MIC for SEQ ID No. 6 was 2 μM, and MIC for SEQ ID No. 9 was 2 μM.
FIG. 6 illustrates the bactericidal activity of the 24 amino acid AMPs series against Pseudomonas aeruginosa (by kinetic assay) over time (hours). […] OD reading, at 570 nm, represents bacterial growth; background reading (˜0.05) was subtracted from sample readings. Bolded concentration indicates the determined MIC.

[8] = methicillin-resistant clinical isolates, 18 h

Row | Compound | neutralizing LPS-induced TNF secretion [2] | MIC PA82 82-8 ([3]; MDR clinical isolates, 18 h) [µM] | MIC PA 129-5 ([3]; MDR clinical isolates, 18 h) [µM] | MIC MRSA 150-10 [4, 8] [µM] | MIC MRSA USA300 [4, 8] [µM] | MIC Ef 25153 ([5]; MDR clinical isolates, 18 h) [µM] | MIC Ef 26125 ([5]; MDR clinical isolates, 18 h) [µM] | MIC A5 ([6]; 18 h) [µM] | MIC C3 ([6]; 18 h) [µM] | MIC C5 ([6]; 18 h) [µM] | MIC (Pseudomonas aeruginosa) [µM] | MIC D7 ([6]; 18 h) [µM] | MIC E6 ([6]; 18 h) [µM] | further results
1 | CC(C)[C@@H](NC(=O)[C@H](Cc1c[nH]c2ccccc12)NC(=O)[C@H](CCCNC(=N)N)NC(=O)[C@H](CCCNC(=N)N)NC(=O)[C@H](NC(=O)[C@H](NC(=O)[C@H](CCCNC(=N)N)NC(=O)[C@H](NC(=O)[C@H](NC(=O)[C@H](CCCNC(=N)N)NC(=O)[C@H](CCCNC(=N)N)NC(=O)[C@H](Cc1c[nH]c2ccccc12)NC(=O)[C@H](NC(=O)[C@H](CCCNC(=N)N)NC(=O)[C@H](CCCNC(=N)N)NC(=O)[C@H](NC(=O)[C@H](CCCNC(=N)N)NC(=O)[C@H](CCCNC(=N)N)NC(=O)[C@H](NC(=O)[C@H](Cc1c[nH]c2ccccc12)NC(=O)[C@H](CCCNC(=N)N)NC(=O)[C@@H](N)CCCNC(=N)N)C(C)C)C(C)C)C(C)C)C(C)C)C(C)C)C(C)C)C(C)C)C(=O)N[C@@H](CCCNC(=N)N)C(=O)N[C@@H](CCCNC(=N)N)C(=O)O [SEQ ID No. 34] (H-RRW[dV]RR[dV]RR[dV]WRR[dV][dV]R[dV][dV]RRW[dV]RR-OH; N-terminus and C-terminus assumed) |  |  |  |  |  |  |  |  |  |  |  |  |  | cytopathology in Hep2 cells (Hep2 epithelial cells): caused cytopathology; recruitment of leukocytes (a measure of inflammation) ([1]; at four times the concentration of SEQ ID No. 26): significantly lower than SEQ ID No. 26; behaviour of mice after treatment ([1]; response to the hand grab): more active and responsive
2 | Colistin [reference compound] | Do Not Neutralize |  |  |  |  |  |  |  |  |  |  |  |  | MIC PA 82-8 ([3]; isolate PA 82-8, Table 3): <16 µM; MIC PA 129-5 ([3]; isolate PA 129-5, Table 3): <16 µM; MIC MRSA 150-10 ([4]; isolate 150-10, Table 3): <16 µM; MIC MRSA USA300 ([4]; isolate USA300, Table 3): <16 µM; MIC Ef 25153 ([5]; isolate Ef 25153, Table 3): <16 µM; MIC Ef 26125 ([5]; isolate Ef 26125, Table 3): <16 µM; MIC A5 ([6]; isolate A5, Table 3): >32 µM; MIC C3 ([6]; isolate C3, Table 3): >32 µM; MIC C5 ([6]; isolate C5, Table 3): >32 µM; MIC D7 ([6]; isolate D7, Table 3): <16 µM; MIC E6 ([6]; isolate E6, Table 3): <16 µM; maximum tolerated dosage (MTD) ([7]; FIG. 14A): 10 mg/kg; maximum tolerated dose (MTD) ([7]; i.v., Swiss Webster mice): 10 mpk
3 | ILKKWWGTSGGLLGGLLGKVTSVIKGLNNI [SEQ ID No. 3] | good activity; also recorded: display Neutralizing Activities | >32 | >32 | <32 | <32 | 16 | 16 | 32 | >32 | >32 |  |  |  | bactericidal activity (Pseudomonas aeruginosa; kinetic assay, FIG. 5): did not have strong bactericidal activity
4 | ILKKWWKTSGGLLGGLLGKVTSVIKGLNNI [SEQ ID No. 4] | good activity; also recorded: display Neutralizing Activities | >4 | 4 | >4 | >4 | >4 | <2 | >4 | >4 | 4 | 4 | <2 | >4 | 
5 | ILKKWWKTSKGLLGGLLGGVTSVIKKLKKI [SEQ ID No. 7] |  | 2 | <2 | <2 | <2 | >4 | <2 |  | <2 | 4 | 2 | <2 | <2 | 
